Source: patent EP3011965B1, “SALVIA MILTIORRHIZA EXTRACT, MICROPELLET FORMULATION THEREOF, METHODS OF PREPARING SAME, AND USES THEREOF” (Tasly Pharmaceutical Group Co., Ltd., priority 2013, dated 2014)
Marks after values point to notes of the source that are not given here.

Test system: zebra fish high blood lipid model
Assay: Quantitative evaluation of blood lipid lowering effect in zebra fish high blood lipid model
Format: in vivo, zebra fish of ALBINO strain
Settings: 48 hours after treatment; for Blood lipid reducing rate: 0.081 µg/ml (text: 0.08 µg/ml), vs model group
Method: Animal: Zebra fish embryos were propagated by means of natural pair mating. Each mating, 4∼5 pairs of adult were prepared, and in average, each pair of zebra fish produced 200∼300 embryos. At 6th hour post-fertilization (6hpf) and 24hpf, the embryos were cleaned (removing dead embryo) and qualified embryos were selected according to embryo developing stage (Kimmel et al. 1995). At 28°C, embryos were incubated in fish-farming water, which contained 200mg instant soluble sea salt in 1L reverse osmosis water with conductivity of 480-510 µS/cm, pH of 6.9-7.2, hardness of 53.7-71.6 mg/L CaCO3. Feeding was required since 9 days post-fertilization (9dPf) because the embryos could get nutrients from their own yolk sac. After study, tricaine methane sulfonate (TMS) was used to overexpose the embryos in various developmental stages and the zebra fish were anesthetized and sacrificed. Sacrifice procedure was in light of the sacrifice-under-anesthesia regulatory requirement of AVMA (America Veterinary medical Association).
According to results of part A, the blood lipid lowering effect of Danshen extract in three concentrations was evaluated (usually at MNLC, 1/3MNLC and 1/10 MNLC), and 30 zebra fish treated in each concentration.
High-fat food was used to feed juvenile fish of zebra fish of ALBINO strain to induce zebra fish high blood lipid model.
After feeding, the zebra fish high blood lipid model was treated with tested drug for 48 hours.
Positive drug: lovastatin at 0.08 µg/ml.
After being treated with tested drugs, zebra fish were fat stained with fat-specific colorant.
Fifteen zebra fish were randomly selected in each concentration to observe intensity of zebra fish tail blood fat stain, pictured and saved.
Image -Pro Plus 6.0 image analytical software was used to analyze the image. The signal strength of zebra fish tail blood fat stain (S) was calculated and quantitatively analyzed. The statistical results were expressed as X ± SE. […]

CC[C@H](C)C(=O)O[C@H]1C[C@@H](C)C=C2C=C[C@H](C)[C@H](CC[C@@H]3C[C@@H](O)CC(=O)O3)[C@H]21 [Lovastatin, lovastatin] was tested, and the “Blood lipid reducing rate” value was 26.3* %, the “Blood lipid reducing rate” value (listed as lovastatin) was 26.3% and the “Tail blood lipid IOD” value (0.081 µg/ml, Mean±SE) was 2142±109.
